Values quoted from earlier work in patent US20240173373A1, “NOVEL METHOD FOR THE PRODUCTION OF CONCENTRATED ALOE VERA COMPOSITIONS AND THERAPEUTIC USES FOR THE SAME” (Desert Harvest, Inc., priority 2021, published 2024).

Test system: scald hyperalgesia
Settings: compared with phenylbutazone

Substance: O-acetylated-D-mannan [O-acetylated-D-mannan (T-2-HN)]
- inhibitory effect on scald hyperalgesia: more marked inhibitory effect on scald hyperalgesia than phenylbutazone
